# Patent EP0338042B1, “COMPOSITION AND METHOD FOR TREATING HEPATITIS VIRUS INFECTIONS USING 1-(2'-DEOXY-2'-FLUORO-BETA-D-ARABINOFURANOSYL)-5-ETHYLURACIL” (priority 1987, dated 1989)
# Several values for one entry are separate records, joined by “and”; a condition that tells them apart may be missing. Equal values may be shown once. Read-outs that look alike come from different tables or passages of the source. Marks after values point to notes of the source that are not given here.
# Key:
# [1] = system: simian varicella virus (SVV); experiment: Simian varicella virus infection in the African green monkey; details: for VIREMIA - MEAN PFU ON DAYS P.I. 3: IV twice daily for ten days from 48 hours after inoculation; for VIREMIA - MEAN PFU ON DAYS P.I. 5 / VIREMIA - MEAN PFU ON DAYS P.I. 7 / VIREMIA - MEAN PFU ON DAYS P.I. 9 / VIREMIA - MEAN PFU ON DAYS P.I. 11: IV twice daily for ten days
# [2] = system: HSV-1 INFECTED VERO CELLS; experiment: Incorporation of 2-14C-labeled nucleoside into DNA of cells; assay type: cell-based, African green monkey; details: [2-14C] labeled nucleoside
# Excerpt: (§1) There was no detectable incorporation of FEAU radioactivity into the DNA of either L-1210 or Vero cell lines, but substantial amounts of FMAU radioactivity were incorporated into the DNA of both cell lines. When HSV-1 infected Vero cells were exposed to ¹⁴C-labeled FEAU and FMAU, both nucleosides incorporated into the DNA of these virus-infected cells.
# VERO = experiment: as above; assay type: cell-based, African green monkey; details: FEAU also not detectable at 100 μM
# Excerpt: as §1
# [3] = cited from earlier work
# Vero cells [4] = details: cytotoxic effect measured in rapidly dividing cells; read-out: ID₅₀; cited from earlier work
# HSV-2(G) [5] = experiment: Plaque reduction assay in Vero cells; assay type: cell-based; details: monkey
# Excerpt: (§2) With FMAU as a lead compound, the syntheses of other 5-alkyl substituted 2′-fluoro-ara-uracils were undertaken (8, 9), including 1-(2′-deoxy-2′-fluoro-beta-D-arabinofuranosyl)-5-ethyluracil [FEAU].
# HSV-1(F) = experiment: Plaque reduction assay in Vero cells; assay type: cell-based; details: monkey
# Excerpt: as §2
# RAT BONE MARROW CELLS = experiment: Inhibition of thymidine incorporation into DNA; assay type: cell-based; details: Bone marrow cell, read-out: ED50 FOR […] INC[…] DNA, RAT BONE MARROW CELLS, read-out: ED50 FOR INHIBITING THYMIDINE INCORPORATION INTO DNA, RAT BONE MARROW CELLS
# L-1210 CELLS = experiment: Inhibition of thymidine incorporation into DNA; assay type: cell-based, rodent; details: Mus musculus, L1210, read-out: ED50 FOR […] INC[…] DNA, L-1210 CELLS; read-out: ED50 FOR INHIBITING THYMIDINE INCORPORATION INTO DNA, L-1210 CELLS
# HSV-2 (STRAIN G) = details: cited from earlier work; for MDD: calculated on day 21; for %WT GAIN ON DAY 7 / %WT GAIN ON DAY 14 / %WT GAIN ON DAY 21 / %WT GAIN ON DAY 30: compared to day 1
# [6] = system: woodchuck hepatitis virus (WHV); experiment: Inhibition of WHV replication in chronically infected woodchucks (DNA polymerase activity); assay type: in vivo, woodchucks (Marmota monax); details: for WHV replication by day 60: all 5 animals
# Description: All woodchucks bearing chronic active hepatitis virus (Hantz, supra) were administered FMAU twice daily by interperitoneal injections of FMAU in the following dosages:
# Studies were then undertaken to evaluate FMAU and FEAU in this animal model using woodchucks naturally chronically-infected with woodchuck hepatitis virus (24). It was assumed that these nucleosides would be anabolized to their nucleoside triphosphates within the animal. WHV replication was measured periodically by the endogenous DNA polymerase activity and by the detection of WHV DNA by the dot-blot hybridization assay. Three different dosages of FMAU and FEAU were investigated. FMAU at 2 mg/kg/day x 5, (given intraperitoneally TABLE VIII
# In accordance with the procedures of Example 2, the FEAU inhibition of WHV replication was further studied at different doses administered orally to woodchucks through stomach tubes. Two groups of woodchucks with different initial WHV replication values were examined.
# Seven woodchucks with high WHV replication were tested. High replication was defined as over 1000 counts per minute of DNA polymerase activity, and the mean replication was 1600.
# Seven woodchucks with low WHV replication were tested. Low replication was defined as lower than 1000 counts per minute of DNA polymerase activity, and the mean replication was 600-800.
# Vero cells [7] = experiment: Inhibition of cell growth; assay type: cell-based, African green monkey; details: Chlorocebus sabaeus, read-out: ED50 FOR INHIBITING CELL GROWTH IN VERO CELLS
# HSV-2(G) [8] = details: plaque reduction in Vero cells, cited from earlier work
# [9] = FEAU 3 MG/KG/DAY, one line per monkey
# [10] = FEAU 10 MG/KG/DAY, one line per monkey
# [11] = FEAU 30 MG/KG/DAY, one line per monkey
# [12] = FEAU 10 MG/KG/DAY, single surviving animal only
# [13] = 0.2 mg/kg/day, FMAU x 5, FEAU x 10
compound,measurement,setting,value
"CCc1cn([C@@H]2O[C@H](CO)[C@@H](O)[C@@H]2F)c(=O)[nH]c1=O [FEAU, 1-(2'-deoxy-2'-fluoro-beta-D-arabino-furanosyl)-5-ethyl-uracil]",minimal effective dose,"[1]; Cercopithecine alphaherpesvirus 9, in Primates",~1 mg/kg/day
same,RASH -SEVERITY ON DAYS P.I. 9,"[1]; FEAU 1 MG/KG/DAY by stomach tube twice daily for ten days, one line per monkey",±
same,VIREMIA - MEAN PFU ON DAYS P.I. 3,[1]; [9],1 PFU and 0 PFU
same,VIREMIA - MEAN PFU ON DAYS P.I. 5,[1]; [9],8 PFU and 1 PFU
same,VIREMIA - MEAN PFU ON DAYS P.I. 7,[1]; [9],0 PFU and 1 PFU
same,VIREMIA - MEAN PFU ON DAYS P.I. 9,[1]; [9],0 PFU
same,VIREMIA - MEAN PFU ON DAYS P.I. 11,[1]; [9],0 PFU
same,VIREMIA - MEAN PFU ON DAYS P.I. 3,[1]; [10],1 PFU and 0 PFU
same,VIREMIA - MEAN PFU ON DAYS P.I. 5,[1]; [10],14 PFU and 1 PFU
same,VIREMIA - MEAN PFU ON DAYS P.I. 7,[1]; [10],5 PFU and 1 PFU
same,VIREMIA - MEAN PFU ON DAYS P.I. 9,[1]; [10],0 PFU
same,VIREMIA - MEAN PFU ON DAYS P.I. 11,[1]; [10],0 PFU
same,VIREMIA - MEAN PFU ON DAYS P.I. 3,[1]; [11],1 PFU and 2 PFU
same,VIREMIA - MEAN PFU ON DAYS P.I. 5,[1]; [11],0 PFU
same,VIREMIA - MEAN PFU ON DAYS P.I. 7,[1]; [11],0 PFU
same,VIREMIA - MEAN PFU ON DAYS P.I. 9,[1]; [11],0 PFU
same,VIREMIA - MEAN PFU ON DAYS P.I. 11,[1]; [11],0 PFU
same,rash,"[1]; intravenous route, 30, 10 and 3 mg/kg/day x 10",none of the FEAU-treated monkeys developed rash
same,hematology tests and serum chemistries,"[1]; intravenous route, 30, 10 and 3 mg/kg/day x 10, all treated monkeys",normal
same,toxicity,"[1]; intravenous route, three dose levels up to 30 mg/kg/day x 10",no apparent toxicity
same,rash,[1]; lower dose of 1 mg/kg/day,prevented development of rash
same,viremia,[1]; lower dose of 1 mg/kg/day,did not reduce viremia in two of three monkeys
same,viremia,"[1]; oral administration, 10, 3 or 1 mg/kg/day x 10",reduced viremia significantly
same,toxicity,"[1]; oral route, 10 mg/kg/day x 10",without any observed toxicity
same,"INCORPORATION INTO DNA AT 10μM, HSV-1 INFECTED VERO CELLS",[2],0.48 p MOLE/10^6 CELLS/HR
same,"INCORPORATION INTO DNA AT 10μM, VERO",VERO,NOT DETECTABLE*
same,toxicity,[3]; in vivo experiments with mice,relatively nontoxic
same,toxicity,"[3]; normal (uninfected) mice, 800 mg/kg/day given twice daily for 4 days",non-toxic
same,CC50,Vero cells [4],200 µM
same,THER. INDEX ID₅₀/ED₉₀ HSV-2,HSV-2(G) [5],220
same,THER. INDEX ID₅₀/ED₉₀ HSV-1,HSV-1(F),769
same,EC50,RAT BONE MARROW CELLS,3700 µM
same,toxicity,"Toxicity in dogs; 50 mg/kg/day x 10, preliminary studies",moderate toxicity
same,lethal dose,"Toxicity in dogs; FMAU i.v. x 5, FEAU x 10 (preliminary)",100 mg/kg/day
same,EC50,L-1210 CELLS,630 µM
same,MDD,"HSV-2 (STRAIN G); FEAU 10 MG/KG/DAY, twice a day for 4 days from 5 hr after inoculation",9.4
same,% SURVIVORS,"HSV-2 (STRAIN G); FEAU 10 MG/KG/DAY, twice a day for 4 days",8%
same,%WT GAIN ON DAY 7,HSV-2 (STRAIN G); FEAU 10 MG/KG/DAY,-7%
same,%WT GAIN ON DAY 14,HSV-2 (STRAIN G); [12],-13^+ %
same,%WT GAIN ON DAY 21,HSV-2 (STRAIN G); [12],31^+ %
same,%WT GAIN ON DAY 30,HSV-2 (STRAIN G); [12],36^+ %
same,MDD,"HSV-2 (STRAIN G); FEAU 50 MG/KG/DAY, twice a day for 4 days from 5 hr after inoculation",11.8
same,% SURVIVORS,"HSV-2 (STRAIN G); FEAU 50 MG/KG/DAY, twice a day for 4 days",25%
same,%WT GAIN ON DAY 7,HSV-2 (STRAIN G); FEAU 50 MG/KG/DAY,3%
same,%WT GAIN ON DAY 14,HSV-2 (STRAIN G); FEAU 50 MG/KG/DAY,-10%
same,%WT GAIN ON DAY 21,HSV-2 (STRAIN G); FEAU 50 MG/KG/DAY,16%
same,%WT GAIN ON DAY 30,HSV-2 (STRAIN G); FEAU 50 MG/KG/DAY,25%
same,MDD,"HSV-2 (STRAIN G); FEAU 100 MG/KG/DAY, twice a day for 4 days from 5 hr after inoculation",11.0
same,% SURVIVORS,"HSV-2 (STRAIN G); FEAU 100 MG/KG/DAY, twice a day for 4 days",72%
same,%WT GAIN ON DAY 7,HSV-2 (STRAIN G); FEAU 100 MG/KG/DAY,2%
same,%WT GAIN ON DAY 14,HSV-2 (STRAIN G); FEAU 100 MG/KG/DAY,7%
same,%WT GAIN ON DAY 21,HSV-2 (STRAIN G); FEAU 100 MG/KG/DAY,13%
same,%WT GAIN ON DAY 30,HSV-2 (STRAIN G); FEAU 100 MG/KG/DAY,13%
same,MDD,"HSV-2 (STRAIN G); FEAU 200 MG/KG/DAY, twice a day for 4 days, parentheses: death of a single animal",(14)^#
same,% SURVIVORS,"HSV-2 (STRAIN G); FEAU 200 MG/KG/DAY, twice a day for 4 days",93%
same,%WT GAIN ON DAY 7,HSV-2 (STRAIN G); FEAU 200 MG/KG/DAY,0%
same,%WT GAIN ON DAY 14,HSV-2 (STRAIN G); FEAU 200 MG/KG/DAY,1%
same,%WT GAIN ON DAY 21,HSV-2 (STRAIN G); FEAU 200 MG/KG/DAY,9%
same,%WT GAIN ON DAY 30,HSV-2 (STRAIN G); FEAU 200 MG/KG/DAY,13%
same,toxicity,"HSV-2 (STRAIN G); HSV-2 infected mice, doses of 100-200 mg/kg/day",no toxicity was observed
same,anti-WHV effect,[6]; 0.04 mg/kg/day x 10,somewhat diminished anti-WHV effect
same,suppression of viral replication,[6]; [13],equally effective
same,toxicity,[6]; [13],nontoxic
same,inhibitory activity after cessation of drug administration,"[6]; 0.2 or 2 mg doses, slow return to pretreatment levels",remained significant over a six-week period
same,WHV replication by the twenty-third day,"[6]; high replication woodchucks (>1000 cpm), oral 0.2 mg/kg/day, four of five still above normal level (50 cpm)",lowered replication values
same,WHV replication by day 60,"[6]; high replication woodchucks, oral 0.2 mg/kg/day, raised to 1 mg/kg/day on day 24 in four of five",completely inhibited
same,WHV replication,[6]; i.p. 2 mg/kg/day x 10,almost immediate suppression
same,weight loss,[6]; in vivo,about 10%
same,toxicity,"[6]; in vivo, ip, 2 mg/kg/day",did not exhibit any toxic effects
same,toxicity,"[6]; in vivo, po, 0.2 mg/kg/day",without any observed toxicity
same,WHV replication by the twenty-third day,"[6]; low replication woodchucks (<1000 cpm), oral 0.04 mg/kg/day, two of five still above normal level",lowered replication values
same,WHV replication by day 60,"[6]; low replication woodchucks, oral 0.04 mg/kg/day, raised to 0.2 mg/kg/day on day 24 in two of five",completely inhibited
same,WHV replication,"[6]; oral administration, 0.2 mg/kg/day x 10, one woodchuck, preliminary",significant suppression
same,EC50,Vero cells [7],> 200 µM
same,EC50,HSV-2(G) [8]; read-out: HSV-2(G) ED₅₀,0.24 µM
same,EC90,HSV-2(G) [8]; read-out: HSV-2(G) ED₉₀,0.91 µM
